Consider eleven molecules from patent US8268856B2, “Method to use compositions having antidepressant anxiolytic and other neurological activity and compositions of matter” (priority 2007, dated 2012).

pKi: −log10 of the molar value. Entries after “also recorded” stand apart in the source; their conditions may differ. Like-named read-outs stand apart in the source and are kept apart here.

Assay [1] concerns serotonin receptors. Put plainly: Affinity to serotonin receptors (receptor binding panel). Further details: species or system human or rodent. The procedure:
(§1) Evaluation of binding affinity of isolated compounds to serotonin receptors. In vitro testing of isolated compounds was completed using a small panel of receptor binding assays and then validated in a comprehensive panel by the NIMH Psychoactive Drug Screening Program. Pharmacological and functional screening of isolated molecules was performed on cloned human or rodent CNS receptors, channels, and transporters. Hu, J-F., et al. New Antiinfective and Human 5-HT2 Receptor Binding Natural and Semisynthetic Compounds from the Jamaican Sponge Smenospongia aurea. 65 Jour. of Nat. Prod. 476-80 (2002).
(§2) Porsolt R D, et al. Behavioral Despair In Mice: A Primary Screening Test for Antidepressants, 229 Arch. Int. Pharmacodyn. 327-36 (1977). […] In order to control for false positives, as has been previously observed with psychostimulants, Cryan, J., et al. Assessing Substrates Underlying The Behavioral Effects Of Antidepressants Using The Modified Rat Forced Swimming Test. 29 Neurosci Biobehav Rev. 547-69 (2005) locomotor activity of the animals was monitored using an automated photobeam activity monitoring system. Lucki. I. The Forced Swimming Test As A Model For Core And Component Behavioral Effects Of Antidepressant Drugs. 8 Behav. Pharmacol. 522-32 (1997).

For assay [2], the target named is 5-HT6 (UniProt P50406). Put plainly: In vitro receptor binding assay, 5-HT6. Further details: species or system human or rodent. As to conditions: read-out: Ki 5-HT6; preliminary data. The procedure:
as §1

The test system of assay [3] is white-leghorn cockerels. Nature of the assay: Chick anxiety-depression continuum model (SCADM). As to conditions: 30 mg/kg dose. The class given is in vivo. As for the experimental part:
5,6-Dibromo-N,N-dimethyltryptamine (1) was evaluated in the FST and chicken anxiety-depression model. […] In the chick anxiety-depression continuum model, socially raised chicks are separated from conspecifics during a two hour test session. […] Previous studies have shown the first 5 min block to model the anxiety phase whereby a diverse set of anxiolytic compounds reduce distress vocalizations and that the last 90 min of the test session models the depressive phase of the model whereby antidepressants increase distress vocalizations (i.e., block the onset of behavioral despair). Sufka, K. J. et al.; 17 C. M. Behav.
Sulfka Chick Anxiety-Depression Model (SCADM) Test. Group housed white-leghorn cockerels (Cal-Maine W36) were tested at ages 5-6 days post-hatch. […] Vocalizations were recorded in 5-min blocks over a 120 min test period. […]
(§3) For the FST, immobility times of the three independent rates were averaged for each mouse and data were analyzed using one way analysis of variance (ANOVA) followed by Bonferroni Multiple comparison posthoc tests to determine statistical differences from the corresponding vehicle control. Chick distress vocalization data were analyzed by two-way repeated measures ANOVA, one-way ANOVA and simple effects analyses with post-hoc comparisons conducted using Fisher's LSD test. p-Values less than 0.05 were considered statistically significant.

Assay [4] concerns the target T1, 5HT2A receptor (Homo sapiens, UniProt P28223). Put plainly: In vitro receptor binding assay, 5-HT2A. Set-up: species or system human or rodent. The following applies: read-out: Ki 5-HT2A; preliminary data. As for the experimental part: as §1
The subject of assay [5] is male Swiss Webster mice. Put plainly: Porsolt forced swim test (FST). The class given is in vivo, mouse. As to conditions: for antidepressant-like activity / effect on immobility time in FST: male Swiss Webster mice, IP, immobility during last 4 min of 6 min swim. The procedure: (§4) Locomotor Activity and the FST. To evaluate the isolated compounds for antidepressant-like activity, male Swiss Webster mice (Harlan, Indianapolis, Ind.) (25-30 g weight) were used. Animals were housed in groups of five with a 12 h light/12 h dark cycle. Food and water were provided at libitum. All procedures involving animals were performed as approved by the Institutional Animal Care and Use Committee of the University of Mississippi. Animals were randomly divided into groups (n=6-10/group). Each group was injected IP with either the compound (1-20 mg/kg), desipramine (20 mg/kg), or vehicle (saline, 10% ethanol or 10% ethanol/1% DMSO). Following injection, locomotor activity was monitored using an automated activity monitoring system (San Diego Instruments, San Diego, Calif.). Each mouse was placed in a Plexiglas enclosure and locomotor activity was recorded as the number of photobeam interruptions for 30 min after drug injection. The activity for the last ten min was quantified and analyzed. Immediately at the end of the locomotor session, individual mice were subjected to the FST. The mice were individually placed in a clear plastic cylinder (23 cm high, 10 cm internal diameter) filled with deionized water (8 cm high) at 25° C. The mice were recorded with a video camera (positioned at about 30 cm above the cylinder) for a total of 6 min. The total period of immobility during the last 4 min was timed by three independent observers. The mean immobility time was then calculated. A mouse was judged to be immobile when it remained afloat, making only minimal movements to keep its head above water.
as §3, §2

Assay [6] relates to male Swiss Webster mice. Nature of the assay: Locomotor activity test, Swiss Webster mice. The class given is in vivo, mouse. The following applies: IP, photobeam interruptions, versus vehicle. The procedure: as §4
Effect of select compounds on locomotor activity. Since reductions in immobility time is the primary criterion to assess antidepressant like activity in both the FST and TST, it is crucial to confirm that the effects observed in both tests are not attributed to specific stimulant action of the tested compounds, which would be reflected as enhancement of the locomotor activity. Accordingly, the effect of tested compounds on locomotor activity was evaluated using an automated activity monitoring system.

Assay [7] has as its target 5-HT2B receptors (UniProt P41595). Nature of the assay: In vitro receptor binding assay, 5-HT2B. Further details: species or system human or rodent. The following applies: read-out: Ki 5-HT2B; preliminary data. As for the experimental part:
as §1

In assay [8] the test system is Male DBA2/J mice. Put plainly: Mouse tail suspension test (TST). The class given is in vivo. The following applies: i.p., versus vehicle. An excerpt: Based on the data collected from the FST, the antidepressant action of aaptamine. 5,6-dibromo-N,N-dimethyltryptamine, and 3-bromotyramine was examined in the mouse tail suspension test (TST), another model highly predictive of antidepressant action. Similar to the FST, this test depends on the depressive behavior elicited by the animals when placed in an inescapable situation, in this case suspending the animal by its tail. Male DBA2/J mice were used for this test.
In fact, higher doses seem to increase immobility time (FIG. 9C). […] However, such effect was only evident at the 40 mg/kg dose (compared to 10 and 20 mg/kg dose in the FST) (FIG. 9D).

Assay [9] concerns the target T2, 5-HT2C (UniProt P28335).
T2 sequence (P28335 1-458): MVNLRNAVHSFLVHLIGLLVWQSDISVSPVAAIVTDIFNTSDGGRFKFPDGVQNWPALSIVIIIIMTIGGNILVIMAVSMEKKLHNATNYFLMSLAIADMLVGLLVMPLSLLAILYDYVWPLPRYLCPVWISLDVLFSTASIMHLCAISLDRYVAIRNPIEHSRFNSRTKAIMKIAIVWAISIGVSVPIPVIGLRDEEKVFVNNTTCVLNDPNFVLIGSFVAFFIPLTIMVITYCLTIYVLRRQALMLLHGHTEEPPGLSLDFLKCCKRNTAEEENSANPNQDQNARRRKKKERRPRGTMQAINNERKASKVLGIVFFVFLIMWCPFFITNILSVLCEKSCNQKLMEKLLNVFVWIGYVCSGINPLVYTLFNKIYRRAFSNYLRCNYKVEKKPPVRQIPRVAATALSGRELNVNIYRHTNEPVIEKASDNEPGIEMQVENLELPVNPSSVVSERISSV
Nature of the assay: In vitro receptor binding assay, 5-HT2C. As to conditions: read-out: Ki 5-HT2C; preliminary data. Set-up: species or system human or rodent. As for the experimental part: as §1

Assay [10] deals with T1, 5HT2A receptor. As to conditions: human serotonin receptor, reported; cited from earlier work.
The target in assay [11] is T3, 5HT2C receptor (Homo sapiens, UniProt P28335).
T3 sequence (P28335 33-458): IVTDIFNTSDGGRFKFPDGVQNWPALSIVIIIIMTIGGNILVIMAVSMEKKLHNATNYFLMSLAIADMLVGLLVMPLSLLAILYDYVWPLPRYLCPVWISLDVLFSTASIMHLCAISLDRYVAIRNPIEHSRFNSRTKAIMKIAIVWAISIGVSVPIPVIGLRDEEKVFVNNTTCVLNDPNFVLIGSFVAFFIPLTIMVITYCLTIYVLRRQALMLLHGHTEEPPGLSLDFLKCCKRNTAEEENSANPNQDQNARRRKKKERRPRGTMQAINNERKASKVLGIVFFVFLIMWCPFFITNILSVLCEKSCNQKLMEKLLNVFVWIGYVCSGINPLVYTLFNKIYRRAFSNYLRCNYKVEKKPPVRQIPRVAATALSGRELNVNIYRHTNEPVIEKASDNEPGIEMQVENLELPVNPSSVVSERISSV
The following applies: cited from earlier work; for pKi: human serotonin receptor, reported.

T1 sequence (P28223 whole entry): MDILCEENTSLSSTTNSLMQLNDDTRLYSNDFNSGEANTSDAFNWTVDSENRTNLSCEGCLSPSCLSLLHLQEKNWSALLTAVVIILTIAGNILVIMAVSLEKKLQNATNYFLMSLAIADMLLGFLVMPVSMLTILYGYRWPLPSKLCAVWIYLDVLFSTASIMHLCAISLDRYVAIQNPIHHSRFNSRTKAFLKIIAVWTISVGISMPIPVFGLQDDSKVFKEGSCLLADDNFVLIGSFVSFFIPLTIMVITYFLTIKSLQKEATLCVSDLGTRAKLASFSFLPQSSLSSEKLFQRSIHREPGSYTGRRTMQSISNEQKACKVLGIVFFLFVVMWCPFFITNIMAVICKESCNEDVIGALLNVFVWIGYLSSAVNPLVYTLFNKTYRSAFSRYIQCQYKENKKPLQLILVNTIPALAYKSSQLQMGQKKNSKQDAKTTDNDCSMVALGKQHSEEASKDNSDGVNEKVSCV

By pKi is commonly meant the Ki on a negative log10 scale, so that one unit is a factor of ten. Regarding `CN(C)CCc1c[nH]c2cc(Br)c(Br)cc12` [5,6-dibromo-N,N-dimethyltryptamine], in assay [1], the “affinities to serotonin receptors” value was “moderate affinities”. The pKi was 7.32 in [2], 6.61 in assay [4], 7.96 in assay [7] and 6.73 in assay [9]. Moreover, the “separation distress vocalizations, depression phase” value in assay [3] (30-120 min of test session) is “elevating separation distress vocalizations in the final 30 min of the depression phase”. In assay [3] (first 5 min of test session), the “separation distress vocalizations, anxiety phase” value is “attenuating separation distress vocalizations in the anxiety phase”. Moreover, the “antidepressant-like activity / effect on immobility time in FST” value (“antidepressant-like activity / effect” below) in [5] (versus vehicle) was “significant antidepressant-like action at only the 20 mg/kg dose”; in assay [5] (versus vehicle, listed as 5,6-Dibromo-N,N-dimethyltryptamine) it was “significant antidepressant-like activity; also recorded: significantly reduced the immobility time only at the 20 mg/kg dose”. In [6], the “effect on locomotor activity” value was “no statistically significant difference; also recorded: nonsignificant trend toward decreasing locomotor activity”. Moreover, in [8], the “antidepressant-like action / immobility in tail suspension test” value is listed as “strong antidepressant-like action at the 5 mg/kg dose only”.
For `CN(C)CCc1c[nH]c2ccc(Br)cc12` [5-bromo-N,N-dimethyltryptamine], the “antidepressant-like activity / effect” value in [5] (versus vehicle) was “did not exhibit antidepressant-like activity”. The “effect on locomotor activity” value in assay [6] is recorded as “significant reduction of locomotor activity”; in assay [6] (listed as 2), “significant sedative effect”.
As to `CN1C(=N)NC(=Cc2c[nH]c3cc(Br)ccc23)C1=O` [6-bromo-2′-de-N-methylaplysinopsin], the pKi in assay [10] is below 4.00; in assay [11], 5.64. Moreover, the “selectivity to 5HT2C receptors” value in assay [11] (5HT2C over 5HT2A) is 40 fold.
For the molecule `CN1C(=N)N(C)/C(=C/c2c[nH]c3cc(Br)ccc23)C1=O` [6-bromoaplysinopsin], the pKi is 5.70 in [10] and 6.48 in assay [11].
Consider `Oc1cc2ccnc3c2c(c1O)NC=C3` [8,9-demethylaaptamine], for which the “affinities to serotonin receptors” value in assay [1] is on record as “moderate affinities”. Besides, the “antidepressant-like activity / effect” value in [5] (versus vehicle) was “Neither”.
As to `CN1C(=N)N(C)/C(=C/c2c[nH]c3ccccc23)C1=O` [Aplysinopsin, aplysinopsin], in [5] (versus vehicle), the “antidepressant-like activity / effect” value is recorded as “did not show any significant antidepressant-like activity”.
Regarding `COc1cc2ccnc3c2c(c1OC)NC=C3` [aaptamine], in assay [5] (20 mg/kg dose, versus vehicle), the “reduction in immobility time in FST” value is reported as 36%.
Regarding `CN(C)CCCC1(c2ccc(F)cc2)OCc2cc(C#N)ccc21` (stereo not shown) [citalopram, reference compound], the “reduction in immobility time in FST” value in assay [5] (5 mg/kg dose, versus saline vehicle) was 40%.
With `CNCCCN1c2ccccc2CCc2ccccc21` [desipramine, reference compound], in assay [5] (20 mg/kg dose, versus vehicle), the “reduction in immobility time in FST” value is 27%. In addition, the “effect on locomotor activity” value in assay [6] is “no significant difference in locomotor activity”. Also, the “antidepressant-like action / immobility in tail suspension test” value in assay [8] is recorded as “significant reduction in immobility”.
In the case of `COc1cc2ccnc3c2c(c1O)N(C)C=C3` [isoaaptamine], the “affinities to serotonin receptors” value in assay [1] is recorded as “moderate affinities”. For the same molecule, the “antidepressant-like activity / effect” value in [5] (versus vehicle) is recorded as “significantly increased immobility time in a dose-dependent manner”.
With N-3′-ethylaplysinopsin, the pKi is 5.77 in [10] and 5.46 in [11].
